For assay [1], the system named is Enterobacter cloacae ATCC 13047. Description: Antibacterial activity, broth microdilution, Enterobacter cloacae. The note with it: Enterobacter cloacae, ATCC13047; minimal concentration resulting in ≧50% inhibition of bacterial growth. The assay is classed as cell-based. An excerpt: (§1) Antibacterial activity was quantified using broth microdilution [Clinical and Laboratory Standards Institute (CLSUNCCLS), Methods for Dilution Antimicrobial Susceptibility Tests for Bacteria That Grow Aerobically; Approved Standard, Eighth Edition. CLIS Document M07-A8 (CLIS, Wayne Pa.), 2009]. Assays with Enterobacter cloacae ATCC 13047, Pseudomonas aeruginosa ATCC10145, and Escherichia coli D21f2to1C, employed a starting cell density of 2-5×10^5 cfu/ml, Mueller Hinton II cation adjusted broth (BD Biosciences, Inc.), and an air atmosphere. Assays with Haemophilus influenzae ATCC49247 and Neisseria gonorrhoeae ATCC 19424 employed a starting cell density of 2-5×10^5 cfu/ml, Haemophilus Test Medium broth (Barry et al., 1993) and a 5% CO2/95% air atmosphere. MIC50 was defined as the minimal concentration resulting in ≧50% inhibition of bacterial growth.
In general terms: In broth dilution the organism is exposed to a series of concentrations in liquid medium.

For assay [2], the target named is Escherichia coli RNAP (Escherichia coli, UniProt P0A8T7+P0A8V2). In words: Fluorescence-detected RNAP assay, Escherichia coli RNAP. The class given is biochemical. The note with it: fluorescent-detected RNAP assays. The protocol:
Fluorescence-detected RNAP assays with Escherichia coli RNAP were performed by a modification of the procedure of Kuhlman et al., 2004 [Kuhlman et al., Anal. Biochem. 324:183-190, 2004]. Reaction mixtures contained (20 μl): […] test compound, 75 nM Escherichia coli RNAP […] holoenzyme, 20 nM 384 by DNA fragment containing the bacteriophage T4 N25 promoter, 100 μM ATP, 100 μM GTP, 100 μM UTP, 100 μM CTP, 50 mM Tris-HCl, pH 8.0, 100 mM KCl, 10 mM MgCl2, 1 mM DTT, 10 μg/ml bovine serum albumin, and 5.5% glycerol. Reaction components other than DNA and NTPs were pre-incubated for 10 min at 37° C. Reactions were carried out by addition of DNA and incubation for 5 min at 37° C., followed by addition of NTPs and incubation for 60 min at 37° C. DNA was removed by addition of 1 μl 5 mM CaCl2 and 2 U DNaseI (Ambion, Inc.), followed by incubation for 90 min at 37° C. RNA was quantified by addition of 100 μl RiboGreen RNA Quantitation Reagent (Invitrogen, Inc.; 1:500 dilution in Tris-HCl, pH 8.0, 1 mM EDTA), followed by incubation for 10 min at 25° C., followed by measurement of fluorescence intensity [excitation wavelength=485 nm and emission wavelength=535 nm; QuantaMaster QM1 spectrofluorometer (PTI, Inc.)].
Half-maximal inhibitory concentrations (IC50s) were calculated by non-linear regression in SigmaPlot (SPSS, Inc.).

In assay [3] the test system is Escherichia coli D21f2toIC. In words: Antibacterial activity, broth microdilution, Escherichia coli D21f2tolC. The class given is cell-based. The note with it: Escherichia coli, D21F2TOIC, read-out: MIC50 Escherichia coli D21f2toIC.
Text: as §1

Converted amounts (≈) assume the structure as drawn. *1 amine or outer side, *2 acyl side, *3 side chain or, on linkers, in order; H or OH if unused. Where a SMILES comes first, the peptide text is derived from it. Bridges are numbered along the chain shown (N, C = ends). [ ]: non-standard residue; d: D form. The star is where a group is joined. X4 = C[C@@H](Oc1ccc([C@H](N[*:1])C(=O)[*:2])cc1)[C@](O)(/C=C/C(=O)[*:3])CNCCCCCCNC(=O)OC(C)(C)C; X5 = C[C@@H](Oc1ccc([C@H](N[*:1])C(=O)[*:2])cc1)[C@](O)(/C=C/C(=O)[*:3])CNCCCNC(=O)OC(C)(C)C; X2 = CCCCOC[C@@](O)(/C=C/C(=O)[*:3])[C@@H](C)Oc1ccc([C@H](N[*:1])C(=O)[*:2])cc1; X6 = CCCCOC(/C=C/C(=O)[*:3])(CO)[C@@H](C)Oc1ccc([C@H](N[*:1])C(=O)[*:2])cc1; X3 = C[C@@H](Oc1ccc([C@H](N[*:1])C(=O)[*:2])cc1)[C@](O)(/C=C/C(=O)[*:3])CO; Pentanoyl(2R-Me,3R-OH,4-Me) = CC(C)[C@@H](O)[C@@H](C)C(=O)*; d(aIle) = CC[C@H](C)[C@@H](N)C(=O)O; d(aThr) = C[C@@H](O)[C@@H](N)C(=O)O; NMeF = CN[C@@H](Cc1ccccc1)C(=O)O

Chain of Escherichia coli RNAP (P0A800 whole entry, the tested form may be a part): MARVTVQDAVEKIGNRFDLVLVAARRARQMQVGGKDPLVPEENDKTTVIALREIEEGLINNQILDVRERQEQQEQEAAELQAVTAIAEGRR
Chain of Escherichia coli RNAP (P00579 whole entry, further chain, the tested form may be a part): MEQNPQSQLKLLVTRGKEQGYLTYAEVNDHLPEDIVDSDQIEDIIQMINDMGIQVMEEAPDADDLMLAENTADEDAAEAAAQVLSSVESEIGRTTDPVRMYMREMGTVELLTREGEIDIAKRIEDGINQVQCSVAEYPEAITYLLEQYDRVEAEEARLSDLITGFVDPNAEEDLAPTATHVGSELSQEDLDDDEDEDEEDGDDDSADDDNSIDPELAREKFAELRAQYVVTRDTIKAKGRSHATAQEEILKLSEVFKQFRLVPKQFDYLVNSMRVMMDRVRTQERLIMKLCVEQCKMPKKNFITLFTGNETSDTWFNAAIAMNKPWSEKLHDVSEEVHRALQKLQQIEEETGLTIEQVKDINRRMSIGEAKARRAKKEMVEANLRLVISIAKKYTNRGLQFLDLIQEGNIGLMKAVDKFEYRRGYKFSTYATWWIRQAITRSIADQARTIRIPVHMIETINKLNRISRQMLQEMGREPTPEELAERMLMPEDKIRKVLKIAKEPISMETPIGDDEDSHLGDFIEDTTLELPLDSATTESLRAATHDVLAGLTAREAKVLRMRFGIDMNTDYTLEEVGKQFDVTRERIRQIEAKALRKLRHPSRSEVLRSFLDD
Chain of Escherichia coli RNAP (P0A8V2 whole entry, the tested form may be a part): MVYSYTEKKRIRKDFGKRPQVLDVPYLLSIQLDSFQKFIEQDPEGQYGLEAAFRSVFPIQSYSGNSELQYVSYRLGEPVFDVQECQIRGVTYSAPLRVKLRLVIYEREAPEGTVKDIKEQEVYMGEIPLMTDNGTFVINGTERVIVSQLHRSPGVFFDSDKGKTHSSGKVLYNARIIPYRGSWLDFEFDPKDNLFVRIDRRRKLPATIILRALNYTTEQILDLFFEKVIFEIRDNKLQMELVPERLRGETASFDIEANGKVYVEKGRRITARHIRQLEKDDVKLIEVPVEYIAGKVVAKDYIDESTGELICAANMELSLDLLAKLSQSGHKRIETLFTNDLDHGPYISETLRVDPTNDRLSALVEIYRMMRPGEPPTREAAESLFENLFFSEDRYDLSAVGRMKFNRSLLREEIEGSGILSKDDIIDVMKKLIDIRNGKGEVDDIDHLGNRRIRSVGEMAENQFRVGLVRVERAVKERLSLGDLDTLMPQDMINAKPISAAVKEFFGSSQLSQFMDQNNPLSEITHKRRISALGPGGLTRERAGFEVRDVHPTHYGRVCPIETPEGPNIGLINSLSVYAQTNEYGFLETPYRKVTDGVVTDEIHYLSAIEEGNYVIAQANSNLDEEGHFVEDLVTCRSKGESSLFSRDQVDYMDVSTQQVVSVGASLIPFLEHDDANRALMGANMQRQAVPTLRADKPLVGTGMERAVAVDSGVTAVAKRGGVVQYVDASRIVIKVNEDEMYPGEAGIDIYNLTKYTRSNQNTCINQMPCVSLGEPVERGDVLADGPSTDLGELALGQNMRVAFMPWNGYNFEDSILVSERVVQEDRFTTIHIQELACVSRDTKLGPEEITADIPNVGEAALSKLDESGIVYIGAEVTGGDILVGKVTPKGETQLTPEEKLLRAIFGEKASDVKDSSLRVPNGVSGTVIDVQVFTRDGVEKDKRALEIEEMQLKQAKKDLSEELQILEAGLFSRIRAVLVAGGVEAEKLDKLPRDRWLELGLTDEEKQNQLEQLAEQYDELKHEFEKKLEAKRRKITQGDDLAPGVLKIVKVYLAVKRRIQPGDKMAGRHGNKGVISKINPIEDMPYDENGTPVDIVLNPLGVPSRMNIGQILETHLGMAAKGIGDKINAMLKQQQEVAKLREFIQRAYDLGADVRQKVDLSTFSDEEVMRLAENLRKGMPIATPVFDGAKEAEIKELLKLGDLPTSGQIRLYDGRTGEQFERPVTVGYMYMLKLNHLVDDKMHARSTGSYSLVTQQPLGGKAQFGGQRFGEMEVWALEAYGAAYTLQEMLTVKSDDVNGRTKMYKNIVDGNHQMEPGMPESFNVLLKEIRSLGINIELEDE
Chain of Escherichia coli RNAP (P0A8T7 whole entry, the tested form may be a part): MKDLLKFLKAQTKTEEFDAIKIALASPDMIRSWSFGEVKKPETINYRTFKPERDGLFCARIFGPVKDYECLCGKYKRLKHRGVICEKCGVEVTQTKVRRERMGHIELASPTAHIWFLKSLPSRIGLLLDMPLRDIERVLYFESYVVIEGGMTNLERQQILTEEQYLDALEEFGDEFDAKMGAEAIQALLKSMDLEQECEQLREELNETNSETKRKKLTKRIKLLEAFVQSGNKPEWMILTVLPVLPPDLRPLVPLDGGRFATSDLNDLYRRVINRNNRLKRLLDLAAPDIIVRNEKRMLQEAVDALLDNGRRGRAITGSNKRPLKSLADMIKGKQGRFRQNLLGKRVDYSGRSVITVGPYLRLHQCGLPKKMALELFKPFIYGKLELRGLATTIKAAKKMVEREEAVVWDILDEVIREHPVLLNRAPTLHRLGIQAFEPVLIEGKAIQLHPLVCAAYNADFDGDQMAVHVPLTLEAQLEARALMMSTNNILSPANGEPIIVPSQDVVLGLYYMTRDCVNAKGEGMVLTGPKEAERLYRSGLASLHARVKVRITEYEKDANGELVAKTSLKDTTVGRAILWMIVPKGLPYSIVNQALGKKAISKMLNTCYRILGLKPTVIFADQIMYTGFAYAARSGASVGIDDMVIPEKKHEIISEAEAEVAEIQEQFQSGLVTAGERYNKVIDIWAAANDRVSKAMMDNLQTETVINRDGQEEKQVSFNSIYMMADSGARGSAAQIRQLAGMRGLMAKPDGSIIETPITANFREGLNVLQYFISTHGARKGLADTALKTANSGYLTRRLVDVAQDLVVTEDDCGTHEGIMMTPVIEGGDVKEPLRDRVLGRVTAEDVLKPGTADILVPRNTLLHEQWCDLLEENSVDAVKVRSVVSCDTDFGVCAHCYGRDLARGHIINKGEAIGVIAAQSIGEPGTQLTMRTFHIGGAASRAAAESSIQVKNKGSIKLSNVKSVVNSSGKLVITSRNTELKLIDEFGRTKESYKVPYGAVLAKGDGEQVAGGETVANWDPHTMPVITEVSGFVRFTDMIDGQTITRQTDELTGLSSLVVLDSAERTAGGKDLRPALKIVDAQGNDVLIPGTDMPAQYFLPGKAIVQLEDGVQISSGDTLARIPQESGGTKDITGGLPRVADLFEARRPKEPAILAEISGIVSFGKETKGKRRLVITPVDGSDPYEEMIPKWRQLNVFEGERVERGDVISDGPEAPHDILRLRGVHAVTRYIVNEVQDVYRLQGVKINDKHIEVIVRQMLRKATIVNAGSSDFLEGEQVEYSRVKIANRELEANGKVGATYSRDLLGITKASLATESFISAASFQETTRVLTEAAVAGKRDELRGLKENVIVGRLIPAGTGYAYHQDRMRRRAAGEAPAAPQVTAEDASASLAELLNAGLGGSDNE
Chain of Escherichia coli RNAP (P0A7Z4 whole entry, further chain, the tested form may be a part): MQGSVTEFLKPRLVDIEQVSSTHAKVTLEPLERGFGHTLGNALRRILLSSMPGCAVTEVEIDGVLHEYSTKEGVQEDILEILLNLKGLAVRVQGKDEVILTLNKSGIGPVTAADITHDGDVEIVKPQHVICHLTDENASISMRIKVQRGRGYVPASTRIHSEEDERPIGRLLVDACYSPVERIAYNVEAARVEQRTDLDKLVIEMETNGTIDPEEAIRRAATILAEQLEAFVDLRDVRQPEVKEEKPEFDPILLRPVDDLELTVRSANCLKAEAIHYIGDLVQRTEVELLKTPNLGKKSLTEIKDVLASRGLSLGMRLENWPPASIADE

As a reminder, the MIC50 is the lowest concentration that inhibits either 50% of growth or 50% of the strains tested, depending on the study. One may read the IC50 as the concentration at which inhibition is half-maximal. As for `CC[C@H](C)[C@H]1NC(=O)[C@@H](NC(=O)[C@H](C)[C@H](O)C(C)C)[C@@H](C)OC(=O)[C@@H]2COC(=O)CNC(=O)/C=C/[C@](O)(CNCCCNC(=O)OC(C)(C)C)[C@@H](C)Oc3ccc(cc3)[C@H](NC1=O)C(=O)N(C)[C@@H](Cc1ccccc1)C(=O)N[C@H]([C@@H](C)O)C(=O)N2` [Sal-NH(CH2)3NHBoc (7)] ({Pentanoyl(2R-Me,3R-OH,4-Me)}-T[d(aIle)][X5][NMeF][d(aThr)]S; ester 1-C; linker 3-6 via G), the MIC50 was determined as 100 µg/mL (≈ 83.7 µM) in assay [1] and 1.56 µg/mL (≈ 1.31 µM) in assay [3]. Besides, 600 nM corresponded to half-maximal inhibition in assay [2] (IC50).

Regarding `CC[C@H](C)[C@H]1NC(=O)[C@@H](NC(=O)[C@H](C)[C@H](O)C(C)C)[C@@H](C)OC(=O)[C@@H]2COC(=O)CNC(=O)/C=C/[C@](O)(CNCCCCCCNC(=O)OC(C)(C)C)[C@@H](C)Oc3ccc(cc3)[C@H](NC1=O)C(=O)N(C)[C@@H](Cc1ccccc1)C(=O)N[C@H]([C@@H](C)O)C(=O)N2` [Sal-NH(CH2)6NHBoc (9)] ({Pentanoyl(2R-Me,3R-OH,4-Me)}-T[d(aIle)][X4][NMeF][d(aThr)]S; ester 1-C; linker 3-6 via G), the results for the MIC50 in assay [1] and in assay [3] were 25 µg/mL (≈ 20.2 µM) and 0.78 µg/mL (≈ 0.631 µM), respectively. In addition, it took 1000 nM to reach half-maximal inhibition in assay [2] (IC50).

Regarding `CCCCOC[C@@]1(O)/C=C/C(=O)NCC(=O)OC[C@@H]2NC(=O)[C@@H]([C@@H](C)O)NC(=O)[C@H](Cc3ccccc3)N(C)C(=O)[C@@H](NC(=O)[C@@H]([C@@H](C)CC)NC(=O)[C@@H](NC(=O)[C@H](C)[C@H](O)C(C)C)[C@@H](C)OC2=O)c2ccc(cc2)O[C@@H]1C` [Sal-OBu A (5A)] ({Pentanoyl(2R-Me,3R-OH,4-Me)}-T[d(aIle)][X2][NMeF][d(aThr)]S; ester 1-C; linker 3-6 via G), the MIC50 in assay [1] was found to be 12.5 µg/mL (≈ 11.4 µM); in assay [3] it was 1.56 µg/mL (≈ 1.43 µM). The same molecule registered an IC50 in assay [2] of 6000 nM.

As for `CCCCOC1(CO)/C=C/C(=O)NCC(=O)OC[C@@H]2NC(=O)[C@@H]([C@@H](C)O)NC(=O)[C@H](Cc3ccccc3)N(C)C(=O)[C@@H](NC(=O)[C@@H]([C@@H](C)CC)NC(=O)[C@@H](NC(=O)[C@H](C)[C@H](O)C(C)C)[C@@H](C)OC2=O)c2ccc(cc2)O[C@@H]1C` (stereo partly drawn) [Sal-OBu B (5B)] ({Pentanoyl(2R-Me,3R-OH,4-Me)}-T[d(aIle)][X6][NMeF][d(aThr)]S; ester 1-C; linker 3-6 via G), the half-maximal inhibitory concentration (IC50) in assay [2] was greater than 25000 nM.

For the molecule `CC[C@H](C)[C@H]1NC(=O)[C@@H](NC(=O)[C@H](C)[C@H](O)C(C)C)[C@@H](C)OC(=O)[C@@H]2COC(=O)CNC(=O)/C=C/[C@](O)(CO)[C@@H](C)Oc3ccc(cc3)[C@H](NC1=O)C(=O)N(C)[C@@H](Cc1ccccc1)C(=O)N[C@H]([C@@H](C)O)C(=O)N2` [Sal-OH (4)] ({Pentanoyl(2R-Me,3R-OH,4-Me)}-T[d(aIle)][X3][NMeF][d(aThr)]S; ester 1-C; linker 3-6 via G), the MIC50 stood at 25 µg/mL (≈ 24.1 µM) in assay [1] and 0.78 µg/mL (≈ 0.751 µM) in assay [3]. For the same molecule, inhibition in assay [2] was half-maximal at 2000 nM (IC50).
